Patent publication US8637252B2, “Methods and compositions for determining altered susceptibility of HIV-1 to anti-HIV drugs” (Monogram Biosciences, Inc., priority 2011, dated 2014)

Key:
Type in all cases: cell-based
[1] = tested on: HIV-1 NL4-3 site-directed reverse transcriptase mutants; test: phenotypic drug resistance test, site-directed reverse transcriptase mutants in NL4-3 background (POL segment assay)
Method: Further, a site directed double mutant T3691/K103N was generated using conventional techniques and tested for resistance to an NNRTI using the methods described above.
To assess the effects of mutations at positions 348, 369, and 399, a series of site-directed mutants were constructed in an wild-type (NL4-3) background. The NNRTI susceptibility phenotypes of these mutants were then determined using the POL segment assay according to Example 2.
In particular, site-directed mutants were constructed in an NL4-3 background comprising N348I, T369I, E399D, or the combination of N3481 and T369I.
Next, a series of site-directed mutants were constructed to assess the effects of combinations of N3481, T369I, and E399D with previously recognized NNRTI resistance mutations. In particular, mutants comprising N348I, T369I, and E399D were made in combination with G190S, with K103N, and with the combination of K103R and V179D. The effects of these combinations on DLV, EFV, and NVP susceptibility were tested using the POL segment assay according to the method describe in Example 2. The results from these experiments are presented as FIG. 10.
To assess the specific effects of mutations at positions 348, 369, and 399, a series of site-directed mutants were constructed in an wild-type (NL4-3) background. The AZT susceptibility phenotype of these mutants were then determined with a POL segment assay according to Example 2.
In particular, site-directed mutants were constructed in an NL4-3 background comprising N348I, T3691, E399D, or the combination of N348I and T3691. The FC in AZT susceptibility for each mutant is shown as FIG. 13.

[2] = tested on: HIV-1 patient-derived test vectors with site-directed reverse transcriptase mutations; test: phenotypic drug resistance test, site-directed reverse transcriptase mutants in patient backgrounds
Method: In addition, using conventional technique, the T369I mutation was introduced into a resistance test vector comprising PR-RT segment derived from patient sample 62, which comprises mutations A62V, Q102K, K103N, K122E, D123N, C162S, D177E, 1178L, M184V, T200A, Q207E, T215Y, P243S, V245Q, A272P and R277K in reverse transcriptase. Among these mutations, K103N correlates with resistance to a number of NNRTIs, including NVP. This patient sample was tested for resistance to an NNRTI using the methods described above.
To further analyze the effects of N348I, T369I, and E399D on NNRTI resistance, an additional series of site directed mutants was constructed in non-wild-type backgrounds. In particular, site-directed mutants comprising the N348I, T369I, or E399D mutation were constructed in POL-containing test vectors obtained from three different patient samples. Results from these experiments are presented as FIG. 11.
To further analyze the effects of N348I, T369I, and E399D on AZT resistance, an additional series of site directed mutants was constructed in non-wild-type backgrounds. In particular, site-directed mutants comprising the N3481, T369I, or E399D mutation were constructed in POL-containing test vectors obtained from two different patient samples.

[3] = tested on: HIV-1 (patient-derived RHIN segment); test: phenotypic drug resistance test, resistance test vectors with patient-derived RHIN segment, luciferase, 293 cells
Description: Patient-derived segment(s) corresponding to the entire pol gene, encoding HIV protease, reverse transcriptase (including RNAse H), and integrase (hereinafter “POL”), the portion of pol encoding amino acids 1-305 of reverse transcriptase (hereinafter “PR-RT”), the portion of pol encoding amino acids 319-440 of reverse transcriptase (including RNAse H), and integrase (hereinafter “RHIN”), were amplified by the reverse transcription-polymerase chain reaction method (RT-PCR) using viral RNA isolated from viral particles present in the plasma or serum of HIV-infected individuals as described below. The portion of pol encoding protease, amino acids 1-531 of reverse transcriptase (including RNase H) (hereinafter “PRRT-RH”), or the portion of pol encoding protease, reverse transcriptase (including RNAse H) and integrase (hereinafter “PRRT-RHIN”), were assembled from amplicons described above by standard recombinant DNA techniques involving a KpnI restriction site at amino acid 400 or a Pin A1 site at amino acid 315.
Virus was pelleted by centrifugation at 20,400×g for 60 min from plasma (typically, 1 ml) prepared from blood samples collected in evacuated tubes containing either EDTA, acid-citrate dextrose, or heparin as an anticoagulant. Virus particles were disrupted by resuspending the pellets in 200 [1.1 of lysis buffer (4 M guanidine thiocyanate, 0.1 M Tris HCl (pH 8.0), 0.5% sodium lauryl sarcosine, 1% dithiothreitol). RNA was extracted from viral lysates by using oligo(dT) linked to magnetic beads (Dynal, Oslo, Norway). Reverse transcription was performed with Superscript III (Invitrogen) at 50 degrees for 1 hour using primer 1.
From the resultant cDNA either POL or RHIN sequences were amplified using the Advantage High Fidelity PCR kit (BD Biosciences; Clontech). POL amplification products are made using forward Primer 3 containing an Apal site and reverse Primer 4 containing a Xho 1 site. RHIN amplification products are made using forward Primer 2 containing a P1NA1 site and reverse Primer 4 containing a Xho 1 site.
A retroviral vector designed to measure antiretroviral drug susceptibility was constructed by using an infectious molecular clone of HIV-1. The vector, referred to herein as an indicator gene viral vector (IGVV), is replication defective and contains a luciferase expression cassette inserted within a deleted region of the envelope (env) gene. The IGVV is described in U.S. Pat. No. 5,837,464 (International Publication Number WO 97/27319) which is hereby incorporated by reference in its entirety. This retroviral vector was further modified to allow insertion of either the entire pol gene (POL) or the portion of poi encoding amino acids 319-440 of reverse transcriptase, the RNase H portion of reverse transcriptase, and integrase (REIN) by engineering an Xho l restriction enzyme recognition site into vif. Prior to doing this, an Xho 1 site in nef was deleted. Resistance Test vectors (RTVs) were constructed by incorporating amplified POL or RHIN into the IGVV by using Apal and Xhol or PinAI and Xho 1 restriction sites respectively. RTVs were prepared as libraries (pools) in order to capture and preserve the pol or RHIN sequence heterogeneity of the virus in the patient. POL amplification products were digested with Apal and Xhol, purified by agarose gel electrophoresis, and ligated to ApaI- and Xhol-digested IGVV DNA. RHIN amplification products were digested with PinAI and Xho/, purified by agarose gel electrophoresis, and ligated to PinAI and Xhol-digested IGVV DNA. Ligation reactions were used to transform competent Escherichia coli (Invitrogen, Carlsbad, Calif.). An aliquot of each transformation was plated onto agar, and colony counts were used to estimate the number of patient-derived segments represented in each RTV library. RTV libraries that comprised less than 50 members are not considered representative of the patient virus. […]

[4] = tested on: HIV-1 NL4-3 and IIIB site-directed integrase mutants; test: phenotypic INSTI susceptibility test, site-directed integrase mutants in NL4-3 or IIIB background (RHIN segment assay)
Method: To assess the effects of mutations at positions 97 and 156 of integrase, two site-directed mutants (T97A and K156N) were constructed in two different wild-type (NL4-3 and IIIB) genetic backgrounds. The INSTI susceptibility phenotypes of these mutants to diketo acid 1, diketo acid 2, and L-870,810 were then determined using the RHIN segment assay according to Example 2.
In particular, site-directed mutants were constructed in an NL4-3 or IIIB background comprising either T97A or K156N. The FC in susceptibility to diketo acid 1, diketo acid 2, and L-870,810 for each mutant is shown as FIG. 18.
Next, a series of site-directed mutants were constructed to assess the effects of combinations of T97A and K156N with previously recognized INSTI resistance mutations. In particular, mutants comprising T97A, K156N, and the combination of T97A and K156N were made in combination with three constellations of previously recognized INSI mutations (V721, F121Y, and T125K; N155S; and T66I and M1541). Each of these combinations was made in a IIIB background. The effects of these combinations on diketo acid 1, diketo acid 2, and L-870,810 susceptibility were tested with the RHIN segment assay according to the method described in Example 2.

Row | SMILES | FC in susceptibility ([1]; site-directed mutant E399D in NL4-3 background) | FC in susceptibility ([1]; site-directed mutant N348I and T369I combination in NL4-3 background) | FC in susceptibility ([1]; site-directed mutant N348I in NL4-3 background) | fold change for IC50 ([1]; site-directed mutant T369I in NL4-3 background) [fold] | change in resistance on addition of mutation ([2]; E399D mutation, patient 45 or patient 50 background) | change in resistance on addition of mutation ([2]; N348I and T369I mutations, all tested patient backgrounds (patients 45, 50)) | FC in susceptibility relative to wild-type (NL4-3) ([3]; nine of 128 patient samples, containing integrase K156N) | FC in susceptibility relative to wild-type (NL4-3) ([3]; three of 128 patient samples, containing integrase T97A) | effect of mutation on resistance ([4]; T97A alone or with V72I/F121Y/T125K, N155S, or T66I/M154I, IIIB background) | effect of mutation on susceptibility ([4]; integrase K156N in NL4-3 and IIIB backgrounds) | effect of mutation on susceptibility ([4]; integrase T97A in NL4-3 and IIIB backgrounds)
1 | Cc1cn([C@H]2C[C@H](N=[N+]=[N-])[C@@H](CO)O2)c(=O)[nH]c1=O [AZT] | < 2 | > 2 | > 2 | > 2 | did not significantly increase | increased resistance | – | – | – | – | –
2 | O=C(NCc1ccc(F)cc1)c1nc(N2CCCCS2(=O)=O)c2cccnc2c1O [L-870,810] | – | – | – | – | – | – | < 0.5 | increased FC | increased resistance | increased susceptibility | reduced susceptibility
